Assay results: patent US10092551B2, “Spiro-thiazolones” (Hoffmann-La Roche Inc., priority 2014, dated 2018)

target: human V1a receptor (Homo sapiens (Human), UniProt P37288); experiment: human V1a receptor binding studies (3H-Vasopressin, SPA beads); conditions: membranes of HEK293 cells transiently transfected with human V1a receptor, Ki by Cheng-Prussoff
Method in brief: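 Membranes from HEK293 cells transiently expressing cloned human V1a receptor, bound on yttrium silicate SPA beads with 4 nM 3H-vasopressin (added stock) and serially diluted compound, 1 h at room temperature. Non-specific binding defined with cold vasopressin; IC50 by non-linear regression, Ki via Cheng-Prusoff.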

Sequence of human V1a receptor (P37288 whole entry): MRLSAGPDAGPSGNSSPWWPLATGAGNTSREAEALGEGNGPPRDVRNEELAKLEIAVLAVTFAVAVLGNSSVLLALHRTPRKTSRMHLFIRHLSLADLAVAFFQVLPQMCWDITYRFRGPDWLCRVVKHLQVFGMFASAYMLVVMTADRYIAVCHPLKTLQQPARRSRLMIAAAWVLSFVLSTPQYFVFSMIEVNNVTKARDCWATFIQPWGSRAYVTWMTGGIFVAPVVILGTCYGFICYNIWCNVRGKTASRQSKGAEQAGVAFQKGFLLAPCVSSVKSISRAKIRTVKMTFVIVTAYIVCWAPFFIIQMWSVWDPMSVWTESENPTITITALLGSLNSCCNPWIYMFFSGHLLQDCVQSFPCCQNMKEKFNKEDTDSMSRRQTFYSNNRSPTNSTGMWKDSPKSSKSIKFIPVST

pKi hV1a	Compound
7.2	O=C1N=C(N2CCC3(CC2)OCc2ccccc23)SC1=C(C1CCCCC1)C1CCCCC1 [Example 125, 5-(dicyclohexylmethylidene)-2-(1′H,3H-spiro[2-benzofuran-1,4′-piperidin]-1′-yl)-1,3-thiazol-4(5H)-one]
7.6	C=C/C(C)=C1\SC(N2CCC3(CC2)OCc2ccccc23)=NC1=O [Example 70, (5E/Z)-5-(but-3-en-2-ylidene)-2-(1′H,3H-spiro[2-benzofuran-1,4′-piperidin]-1′-yl)-1,3-thiazol-4(5H)-one]
8.0	[2H]C([2H])([2H])/C(=C1\SC(N2CCC3(CC2)OCc2ccccc23)=NC1=O)c1ccc(C)nc1 [Example 170, (5E)-5-[1-(6-methylpyridin-3-yl)(^2H3)ethylidene]-2-(1′H,3H-spiro[2-benzofuran-1,4′-piperidin]-1′-yl)-1,3-thiazol-4(5H)-one]
8.8	COC1CCCC/C1=C1/SC(N2CCC3(CC2)OCc2ccccc23)=NC1=O (centres unmarked) [Example 73, (5E/Z)-5-(2-methoxycyclohexylidene)-2-(1′H,3H-spiro[2-benzofuran-1,4′-piperidin]-1′-yl)-1,3-thiazol-4(5H)-one]
8.4	COC/C(C)=C1\SC(N2CCC3(CC2)OCc2ccccc23)=NC1=O [Example 50, (5E/Z)-5-(1-methoxypropan-2-ylidene)-2-(1′H,3H-spiro[2-benzofuran-1,4′-piperidin]-1′-yl)-1,3-thiazol-4(5H)-one]
8.4	C/C(=C1/SC(N2CCC3(CC2)OCc2ccccc23)=NC1=O)C1CC1 [Example 42, (5E/Z)-5-(1-cyclopropylethylidene)-2-(1′H,3H-spiro[2-benzofuran-1,4′-piperidin]-1′-yl)-1,3-thiazol-4(5H)-one]
8.3	O=C1N=C(N2CCC3(CC2)OCc2ccccc23)S/C1=C1/CCc2ccccc21 [Example 46, (5Z)-5-(2,3-dihydro-1H-inden-1-ylidene)-2-(1′H,3H-spiro[2-benzofuran-1,4′-piperidin]-1′-yl)-1,3-thiazol-4(5H)-one]
7.8	O=C1N=C(N2CCC3(CC2)OCc2ccccc23)S/C1=C\c1ccc(Cl)cc1 [Example 8, (5Z)-5-(4-chlorobenzylidene)-2-(1′H,3H-spiro[2-benzofuran-1,4′-piperidin]-1′-yl)-1,3-thiazol-4(5H)-one]
7.6	O=C1N=C(N2CCC3(CC2)OCc2ccccc23)SC1=C1CCC1 [Example 75, 5-cyclobutylidene-2-(1′H,3H-spiro[2-benzofuran-1,4′-piperidin]-1′-yl)-1,3-thiazol-4(5H)-one]
7.6	O=C1N=C(N2CCC3(CC2)OCc2ccccc23)SC1=C(C1CCCC1)C1CCCC1 [Example 118, 5-(dicyclopentylmethylidene)-2-(1′H,3H-spiro[2-benzofuran-1,4′-piperidin]-1′-yl)-1,3-thiazol-4(5H)-one]
9.3	O=C1N=C(N2CCC3(CC2)OCc2ccccc23)S/C1=C1/CCCCc2ccccc21 [Example 47, (5Z)-2-(1′H,3H-spiro[2-benzofuran-1,4′-piperidin]-1′-yl)-5-(6,7,8,9-tetrahydro-5H-benzo[7]annulen-5-ylidene)-1,3-thiazol-4(5H)-one]
7.6	CC(C)(C)OC(=O)N1CCC(=C2SC(N3CCC4(CC3)OCc3ccccc34)=NC2=O)CC1 [Example 41, tert-butyl 4-[4-oxo-2-(1′H,3H-spiro[2-benzofuran-1,4′-piperidin]-1′-yl)-1,3-thiazol-5(4H)-ylidene]piperidine-1-carboxylate]
7.9	CC/C(=C1\SC(N2CCC3(CC2)OCc2ccccc23)=NC1=O)c1ccncc1 [Example 32, (5E)-5-[1-(pyridin-4-yl)propylidene]-2-(1′H,3H-spiro[2-benzofuran-1,4′-piperidin]-1′-yl)-1,3-thiazol-4(5H)-one]
9.0	COC/C(=C1/SC(N2CCC3(CC2)OCc2ccccc23)=NC1=O)c1ccccc1 [Example 92, (5E)-5-(2-methoxy-1-phenylethylidene)-2-(1′H,3H-spiro[2-benzofuran-1,4′-piperidin]-1′-yl)-1,3-thiazol-4(5H)-one]
8.9	O=C1N=C(N2CCC3(CC2)OCc2ccccc23)SC1=C(C1CC1)C1CC1 [Example 115, 5-(dicyclopropylmethylidene)-2-(1′H,3H-spiro[2-benzofuran-1,4′-piperidin]-1′-yl)-1,3-thiazol-4(5H)-one]
8.4	C/C(=C1/SC(N2CCC3(CC2)OCc2ccccc23)=NC1=O)c1ccncc1F [Example 158, (5Z)-5-[1-(3-fluoropyridin-4-yl)ethylidene]-2-(1′H,3H-spiro[2-benzofuran-1,4′-piperidin]-1′-yl)-1,3-thiazol-4(5H)-one]
7.9	C/C(=C1/SC(N2CCC3(CC2)OCc2ccccc23)=NC1=O)C1CCOCC1 [Example 78, (5E/Z)-2-(1′H,3H-spiro[2-benzofuran-1,4′-piperidin]-1′-yl)-5-[1-(tetrahydro-2H-pyran-4-yl)ethylidene]-1,3-thiazol-4(5H)-one]
7.5	O=C1N=C(N2CCC3(CC2)OCc2ccccc23)SC1=C(C(F)(F)F)C(F)(F)F [Example 111, 5-(1,1,1,3,3,3-hexafluoropropan-2-ylidene)-2-(1′H,3H-spiro[2-benzofuran-1,4′-piperidin]-1′-yl)-1,3-thiazol-4(5H)-one]
7.9	C/C(=C1\SC(N2CCC3(CC2)OCc2ccccc23)=NC1=O)C1CCCCC1 [Example 28, (5E)-5-(1-cyclohexylethylidene)-2-(1′H,3H-spiro[2-benzofuran-1,4′-piperidin]-1′-yl)-1,3-thiazol-4(5H)-one]

Further lines, the compound ahead of its results:

Compound	pKi hV1a
C/C(=C1/SC(N2CCC3(CC2)OCc2ncccc23)=NC1=O)c1oc(C)nc1C [Example 167, (5E/Z)-5-[1-(2,4-dimethyl-1,3-oxazol-5-yl)ethylidene]-2-(1′H,7H-spiro[furo[3,4-b]pyridine-5,4′-piperidin]-1′-yl)-1,3-thiazol-4(5H)-one]	6.5
CC(C)(C)[Si](C)(C)OC/C(=C1/SC(N2CCC3(CC2)OCc2ccccc23)=NC1=O)c1ccc(Cl)nc1 [Example 129, (5E)-5-[2-{[tert-butyl(dimethyl)silyl]oxy}-1-(6-chloropyridin-3-yl)ethylidene]-2-(1′H,3H-spiro[2-benzofuran-1,4′-piperidin]-1′-yl)-1,3-thiazol-4(5H)-one]	8.2
O=C1N=C(N2CCC3(CC2)OCc2ccccc23)SC1=C(c1ccc(Cl)cc1)c1ccc(Cl)cc1 [Example 100, 5-[bis(4-chlorophenyl)methylidene]-2-(1′H,3H-spiro[2-benzofuran-1,4′-piperidin]-1′-yl)-1,3-thiazol-4(5H)-one]	7.1
COC1CCCC/C1=C1/SC(N2CCC3(CC2)OCc2ncccc23)=NC1=O (centres unmarked) [Example 164, (5E/Z)-5-(2-methoxycyclohexylidene)-2-(1′H,7H-spiro[furo[3,4-b]pyridine-5,4′-piperidin]-1′-yl)-1,3-thiazol-4(5H)-one]	6.9
CC(C)(C)[Si](C)(C)OC/C(=C1\SC(N2CCC3(CC2)OC(=O)c2ccccc23)=NC1=O)c1ccccc1 [Example 141, 1′-[(5Z)-5-(2-{[tert-butyl(dimethyl)silyl]oxy}-1-phenylethylidene)-4-oxo-4,5-dihydro-1,3-thiazol-2-yl]-3H-spiro[2-benzofuran-1,4′-piperidin]-3-one]	7.6
O=C1N=C(N2CCC3(CC2)OC(=O)c2ccccc23)S/C1=C(\CO)c1ccc(Cl)nc1 [Example 147, 1′-{(5Z)-5-[1-(6-chloropyridin-3-yl)-2-hydroxyethylidene]-4-oxo-4,5-dihydro-1,3-thiazol-2-yl}-3H-spiro[2-benzofuran-1,4′-piperidin]-3-one]	8.0
O=C1N=C(N2CCC3(CC2)OCc2ccccc23)SC1=C(c1cccnc1)c1cccnc1 [Example 119, 5-[di(pyridin-3-yl)methylidene]-2-(1′H,3H-spiro[2-benzofuran-1,4′-piperidin]-1′-yl)-1,3-thiazol-4(5H)-one]	7.6
CC/C(=C1\SC(N2CCC3(CC2)OC(=O)c2ccccc23)=NC1=O)c1ccc(Cl)nc1 [Example 149, 1′-{(5E)-5-[1-(6-chloropyridin-3-yl)propylidene]-4-oxo-4,5-dihydro-1,3-thiazol-2-yl}-3H-spiro[2-benzofuran-1,4′-piperidin]-3-one]	8.2
O=C1N=C(N2CCC3(CC2)OCc2ccccc23)SC1=C1c2ccccc2-c2ccccc21 [Example 104, 5-(9H-fluoren-9-ylidene)-2-(1′H,3H-spiro[2-benzofuran-1,4′-piperidin]-1′-yl)-1,3-thiazol-4(5H)-one]	8.2
O=C1N=C(N2CCC3(CC2)OCc2ccccc23)SC1=C1c2ccccc2C=Cc2ccccc21 [Example 99, 5-(5H-dibenzo[a,d][7]annulen-5-ylidene)-2-(1′H,3H-spiro[2-benzofuran-1,4′-piperidin]-1′-yl)-1,3-thiazol-4(5H)-one]	8.4
C/C(=C1/SC(N2CCC3(CC2)OC(=O)c2ccccc23)=NC1=O)c1ccc(Cl)nc1 [Example 137, 1′-{(5Z)-5-[1-(6-chloropyridin-3-yl)ethylidene]-4-oxo-4,5-dihydro-1,3-thiazol-2-yl}-3H-spiro[2-benzofuran-1,4′-piperidin]-3-one]	8.0
CC(C)(C)[Si](C)(C)OC/C(=C1/SC(N2CCC3(CC2)OC(=O)c2ccccc23)=NC1=O)c1ccccc1 [Example 140, 1′-[(5E)-5-(2-{[tert-butyl(dimethyl)silyl]oxy}-1-phenylethylidene)-4-oxo-4,5-dihydro-1,3-thiazol-2-yl]-3H-spiro[2-benzofuran-1,4′-piperidin]-3-one]	8.9
C/C(=C1/SC(N2CCC3(CC2)OCc2ccncc23)=NC1=O)c1ccc(Cl)cc1 [Example 4, (5E/Z)-5-[1-(4-chlorophenyl)ethylidene]-2-(1H,1′H-spiro[furo[3,4-c]pyridine-3,4′-piperidin]-1′-yl)-1,3-thiazol-4(5H)-one and (5Z)-5-[1-(4-chlorophenyl)ethylidene]-2-(1H,1′H-spiro[furo[3,4-c]pyridine-3,4′-piperidin]-1′-yl)-1,3-thiazol-4(5H)-one]	9.0
